Assay results published in patent US5356775A, “Primary structure for functional expression from complementary DNA of a mammalian ATP-sensitive potassium channel” (Brigham & Women's Hospital, priority 1992, dated 1994).
“Also recorded” adds a separate entry of the source.

Assays:
[1] = target: renal Type 3 KATP channels; conditions: read-out: Ki of intracellular ATP; cited from earlier work
[2] = tested on: Type 1 channels in pancreatic β-cells; conditions: read-out: Ki of intracellular ATP; cited from earlier work
[3] = target: Type 2 KATP channels (central neurons); conditions: central neurons (e.g. ventromedial hypothalamic nucleus), read-out: Ki of ATP; cited from earlier work
[4] = target: Type 1 channels in cardiac myocytes; conditions: read-out: Ki of intracellular ATP; cited from earlier work
ROMK1 K+ channels = target: T1, ROMK1 K+ channels (Rattus norvegicus, UniProt P35560); experiment: Single channel patch clamp recording, inside-out patches excised from ROMK1 mRNA-injected Xenopus oocytes; type: cell-based
T1 construct: This coding region encodes a protein of 391 amino acids; expressed in transfected cells; host or cells: Xenopus laevis oocytes injected with cRNA transcribed in vitro from ROMK1 cDNA (pSPORT1)
T1 sequence (P35560 1-391): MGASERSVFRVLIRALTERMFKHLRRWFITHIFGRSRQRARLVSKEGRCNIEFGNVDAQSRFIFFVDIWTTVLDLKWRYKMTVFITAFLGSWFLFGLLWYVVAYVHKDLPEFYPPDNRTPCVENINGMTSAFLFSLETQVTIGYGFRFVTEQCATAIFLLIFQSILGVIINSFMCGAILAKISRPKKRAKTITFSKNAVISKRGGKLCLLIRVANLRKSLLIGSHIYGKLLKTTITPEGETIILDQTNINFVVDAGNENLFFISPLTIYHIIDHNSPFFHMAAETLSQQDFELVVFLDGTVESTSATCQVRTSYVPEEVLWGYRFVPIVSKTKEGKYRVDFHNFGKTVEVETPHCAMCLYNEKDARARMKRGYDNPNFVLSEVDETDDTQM
Protocol: FIG. 2. Single channel characteristics of ATP-sensitive ROMK1 K^+ channels expressed in Xenopus oocytes. Channel activities were recorded in inside-out patches excised from oocyte membranes.
Changes made in bath solution ATP concentration are indicated above the current recording: ATP-free (solid line), 0.025 mM ATP (dashed line). Recordings were taken at VH =-80 mV. Interruptions were introduced into the recording shown in order to display the entire current tracing. Expanded current tracings taken from the continuous recording are indicated by numbers and arrowheads.
(E) The inhibitory effect of 2.5 mM ATP on channel activity. Changes in bath solution ATP concentration are indicated above the current recording; 0.025 mM ATP (dashed line), 2.5 mM ATP (solid line). […] The recording was taken at VH =-40 mV. Expanded current tracings taken from the recording at various time intervals are indicated by arrows and numbers. The pipette solution contained (mM): 150 or 50 KCl, 1 CaCl2, 1 MgCl2, 5 HEPES (pH 7.4). The bath solution contained (mM): 0,0.025 or 2.5 MgATP, 150 KCl, 1 MgCl2 , 5 EGTA, 5 HEPES (pH 7.4).
Single channel recordings were obtained in oocytes injected with ROMK1 mRNA following vitelline membrane removal using standard patch clamp techniques to further characterize the properties of ROMK1 K^+ currents (FIG. 2). […] At negative membrane potentials, the amplitude of inward currents increased linearly with increasing hyperpolarization relative to Erev (Erev =O mV for symmetrical K^+ solutions). […] Similar inwardly rectifying currents were also observed in the cell-attached patch configuration. The K^+ selectivity of these currents was confirmed by varying the pipette solution K^+ concentration ([K^+ ]ext). Reversal potentials obtained with pipette solutions containing either 150 mM KCl or 50 mM KCl+100 mM NaCl were in complete agreement with the Nernstian predictions for Erev under these conditions (FIGS. 2B, 2C); the permeability ratio (PNa /PK) of 0.025 for these channels indicates high K^+ selectivity. […] Epithelial KATP channels (classified as Type 3) present in renal tubular cells from the thick ascending limb of Henle and the conical collecting duct (Bliech et al., Pflugers Arch. 415:449 (1990); Wang et al., Am. J. Physiol. 258:F244 (1990); Wang et al., Am. J. Physiol. 259:F494 (1990)) have single conductances of ~25-60 pS and share similar characteristics.
The effect of intracellular ATP on ROMK1 currents was also investigated using the inside-out patch configuration. […] In contrast, channel activity was routinely maintained for 30 minutes or longer by excision of patches directly into a bath solution containing 25 μM MgATP. […] Channels with these properties and electrophysiological characteristics were never observed in either cell-attached or inside-out patches from H2 O-injected control oocytes; in contrast, several channels of this type were typically active in patches from ROMK1 mRNA-injected oocytes. The incidence of ROMK1 channels in patches was 94% (63 of 67 patches) which was consistent with the high channel density observed in these experiments. […] In channels of both types, channel rundown rapidly occurs in excised membrane patches; this loss of channel activity is reversed or prevented, at least partially, by the addition of MgATP (Ashcroft et al., Cellular Signalling 2:197 (1990); Ashcroft, F. M., Ann. Rev. Neurosci. 11:97 (1988); Nichols et al., Am. J. Physiol. 261:H1675 (1991); Wang et al., J. Gen. Physiol. 98:35 (1991)).

ROMK1 = target: T2, ROMK1 (Rattus norvegicus, UniProt P35560); experiment: Two-electrode voltage clamp of Xenopus oocytes injected with ROMK1 mRNA; type: cell-based; conditions: 10 mM, [K+]ext = 50 mM, test potentials -60 to 0 mV
T2 construct: This coding region encodes a protein of 391 amino acids; expressed in transfected cells; host or cells: Xenopus laevis oocytes injected with cRNA transcribed in vitro from ROMK1 cDNA (pSPORT1)
T2 sequence (P35560 1-391): T1 sequence (P35560 1-391)
Protocol: (E) Representative current tracings in oocytes injected with ~0.3 ng ROMK1 mRNA or H2 O evoked by 450 ms test pulses from a VH =-45 mV to test potentials from -60 mV to 0 mV in 20 mV increments in the presence or absence of 10 mM Ba2+, [K+ ]ext =50 mM. ROMK1 currents were blocked by 10 mM Ba^2+ at the test potentials used.
(§1) Size-fractionated mRNA with a size of ~2-3 kb yielded a highly augmented mean inward IK(Ba) sixteen-fold greater than that of H2 O-injected controls when injected into oocytes (FIG. 1D) and was therefore used to construct a directional cDNA library in the vector pSPORT1. RNA transcribed in vitro from pooled clones using T7 RNA polymerase was injected into Xenopus oocytes and tested for IK(Ba) currents using two-electrode voltage clamping. Functional screening of cRNA led to the identification of a 2.1 kb cDNA, ROMK1.

[5] = tested on: Ba2+-sensitive potassium currents (IK(Ba)) expressed from rat kidney ISOM poly(A)+ RNA; experiment: Two-electrode voltage clamp of Xenopus oocytes injected with rat kidney ISOM poly(A)+ RNA; type: cell-based; conditions: 5 mM Ba2+, [K+]ext = 50 mM, test potentials -80 to 0 mV
Protocol: (A) Representative current tracings evoked by 450 ms voltage steps ranging from -80 mV to 0 mV in 20 mV increments from a holding potential (VH) of -60 mV in oocytes injected with ~25 ng ISOM poly(A)^+ RNA or 50 nl H2 O [K^+ ]ext =50 mM.
(B) Current-voltage relationships of IK(Ba) in a representative ISOM poly(A)^+ RNA-injected oocyte ( ) and a H2 O-injected control (.circle.). […] Both current amplitudes and Vm were measured 75 ms after initiation of test pulses; Ba^2+ -sensitive current (KK(Ba)) amplitudes were obtained by determining the difference in current amplitudes before and after the addition of 5 mM Ba^2+ at each test potential and plotted as a function of observed Vm.
as §1

SMILES: Nc1ncnc2c1ncn2[C@@H]1O[C@H](COP(=O)(O)OP(=O)(O)OP(=O)(O)O)[C@@H](O)[C@H]1O [ATP]
- Ki [1]: 200 to 500 µM
- Ki [2]: 10 to 20 µM
- Ki [3]: 2000 to 3000 µM
- Ki [4]: 17 to 100 µM
- effect on channel activity of high ATP at the cytosolic face of inside-out patches (ROMK1 K+ channels; 1.0-2.5 mM ATP, patches initially excised into bath containing 25 μM ATP): rapid and marked inhibition of channel activity
- effect of 2.5 mM ATP on channel activity (ROMK1 K+ channels; ATP raised from 0.025 mM to 2.5 mM by puffer pipette, VH = -40 mV): inhibition of channel activity
- restoration of channel activity following channel rundown (ROMK1 K+ channels; readdition of 25 μM (0.025 mM) ATP after ATP-free bath): Partial restoration of channel activity; also recorded: channel recovery
- reversibility of inhibition by ATP (ROMK1 K+ channels; wash-out of the high ATP-containing solution): reversible

SMILES: CC[N+](CC)(CC)CC [TEA^+]
- inhibition (block) of ROMK1 currents (ROMK1): no inhibition

SMILES: Nc1ncnc2c1ncn2[C@@H]1O[C@H](COP(=O)(O)OP(=O)(O)OP(=O)(O)O)[C@@H](O)[C@H]1O [MgATP]
- time channel activity was maintained in excised patches (ROMK1 K+ channels; patches excised directly into bath solution containing 25 μM MgATP): ≥ 30 min

SMILES: [Ba+2] [Ba^2+]
- inhibition (block) of ROMK1 currents (ROMK1): blocked
- inhibition of currents expressed in RNA-injected oocytes [5]: marked inhibition
